Measurements published in paper PMC6150385, “The Blood-Brain Barrier Permeability of Six Indole Alkaloids from Uncariae Ramulus Cum Uncis in the MDCK-pHaMDR Cell Monolayer Model” (Molecules : A Journal of Synthetic Chemistry and Natural …, 2017).

Tests used:
[1] = test system: P-gp; test: Transport in the presence and absence of verapamil (P-gp function / verapamil inhibition of efflux) in MDCK-pHaMDR cell monolayer
Protocol: The cell monolayers were washed twice with prewarmed HBSS before the experiments were carried out. The HBSS medium in the AP side (0.5 mL, for absorption transport) or BL side (1.5 mL, for efflux transport) was replaced with different test compounds. The plates were shaken at 55 rpm for 90 min at 37 °C in a water bath. Samples were quantitatively collected from both sides of the cell monolayer, immediately frozen, lyophilized, and then preserved below −20 °C. To measure the intracellular amounts, the cell monolayers were lyophilized after three freeze (−20 °C)–thaw (room temperature) cycles and preserved below –20 °C. […] The tested concentrations of alkaloids 1–6 were 40 µM. The function of P-gp were tested by the transport of Rh123 at 10 µM in the presence and absence of verapamil (100 µM) undertaken as described above.
The verapamil inhibition experiment was carried out for alkaloids 1 and 3. The cells were pre-incubated with 100 µM of verapamil for 30 min before drug transport assays. Then verapamil was added to both sides, and 40 µM of test alkaloid was added to AP or BL side.
Papp in AP→BL or BL→AP direction of each alkaloid was calculated based on the following equation:Papp = dQ/dt/A/C0 (cm/s) where Q is the accumulation quantity of the alkaloid in the receiver side (μmol), dQ/dt is the linear appearance rate of the alkaloid in the receiver side (μmol/s), C0 is the initial concentration in the donor side (µM), and A is the membrane surface area (cm^2). All of the experiments were conducted in six duplications and data were expressed as the mean ± SD.

[2] = Stability of QC samples after three freeze-thaw cycles (HPLC); format: physicochemical; settings: three freeze (−20 °C)-thaw cycles, percentage remains
Protocol: The stock solutions of the six alkaloids were diluted to three concentrations (low, medium and high) as quality control (QC) samples. Accuracy, precision and stability of QC samples were validated. Accuracy and intraday precision were evaluated by determining the QC samples in three replicates on the same day, while interday precision was assessed by repeated analysis of the same QC samples over three consecutive days. Precision was estimated by RSD, which should not exceed 15%. Accuracy was assessed by comparison of the calculated mean concentrations with the spiked concentrations, and the acceptable range should be within 85–115%. The absolute recoveries of six alkaloids were determined by comparing the peak areas of analytes in QC samples with those of the standard solutions in MeOH with equivalent concentrations.

[3] = test system: MDCK-pHaMDR cell monolayer; settings: for BBB permeability classification: MDCK-MDR1; for intracellular accumulation rates: dog, MDCK-MDR1, 90 min, 40 µM
[4] = in vitro; settings: dog
[5] = Bidirectional transport across MDCK-pHaMDR cell monolayer (in vitro BBB model); settings: dog; for recovery at 90 min, 40 µM: MDCK-MDR1, Recovery Rate
[6] = test system: MDCK-pHaMDR cell monolayer; test: as above; settings: for Intracellular Accumulation / Efflux Ratio (Papp BL→AP/Papp AP→BL): 40 μM, 90 min; for transport mechanism: time- (30–180 min) and concentration- (20–120 μM) dependence
[7] = dog, MDCK-MDR1, with verapamil 100 µM
[8] = MDCK-MDR1, Papp AP→BL, 40 μM, 90 min

| Structure (SMILES) | Stability ([2]; QC sample 5 μM) [%] | Stability ([2]; QC sample 60 μM) [%] | Stability ([2]; QC sample 120 μM) [%] | Papp B→A ([4]; MDCK-MDR1) [×10⁻⁶ cm/s] | Papp A→B [4, 8] [×10⁻⁶ cm/s] | recovery at 90 min, 40 µM ([5]; AP→BL, 40 μM, 90 min) [%] | recovery at 90 min, 40 µM ([5]; BL→AP, 40 μM, 90 min) [%] | Intracellular Accumulation ([6]; BL→AP) [%] | Papp A→B at 90 min, 40 µM ([4]; MDCK-MDR1) [×10⁻⁶ cm/s] | Papp B→A at 90 min, 40 µM ([4]; MDCK-MDR1) [×10⁻⁶ cm/s] | further results |
| --- | --- | --- | --- | --- | --- | --- | --- | --- | --- | --- | --- |
| COC(=O)c1ccccc1-c1c2ccc(=N)cc-2oc2cc(N)ccc12 [Rh123, Rhodamine 123, reference compound] | – | – | – | – | – | – | – | – | – | – | Papp A→B at 90 min, 10 µM ([1]; dog, MDCK-MDR1): 0.843 ± 0.195 ×10⁻⁶ cm/s; Papp B→A at 90 min, 10 µM ([1]; dog, MDCK-MDR1): 5.8 ± 0.259 ×10⁻⁶ cm/s; efflux ratio at 90 min, 10 µM ([1]; dog, MDCK-MDR1, Efflux Ratio (Papp BL→AP/Papp AP→BL), Rh123 10 μM, 90 min, absence of verapamil): 6.88; Papp A→B at 90 min, 10 µM [1, 7]: 1.27 ± 0.213 ×10⁻⁶ cm/s; Papp B→A at 90 min, 10 µM [1, 7]: 1.71 ± 0.099 ×10⁻⁶ cm/s; efflux ratio at 90 min, 10 µM ([1]; dog, MDCK-MDR1, with verapamil 100 µM, Efflux Ratio (Papp BL→AP/Papp AP→BL), Rh123 10 μM with 100 μM verapamil, 90 min): 1.34 |
| CC[C@H]1CN2CC[C@]3(C(=O)Nc4ccccc43)[C@@H]2C[C@@H]1/C(=C\OC)C(=O)OC [alkaloid 1, rhynchophylline] | 96.32 ± 3.30 | 96.86 ± 4.64 | 102.59 ± 3.38 | 42.3 ± 2.48 | 4.37 ± 0.37 | 99.9 ± 1.15 | 102.2 ± 0.47 | 0.40 ± 0.04 | – | – | Papp A→B at 90 min, 40 µM ([1]; dog, MDCK-MDR1): 22.2 ± 6.41 ×10⁻⁶ cm/s; Papp B→A at 90 min, 40 µM ([1]; dog, MDCK-MDR1): 18.1 ± 1.09 ×10⁻⁶ cm/s; P-gp substrate status ([1]; from verapamil (100 µM) inhibition of efflux): substrates of P-gp; BBB permeability classification [3]: moderate permeability; Papp A→B ([4]; MDCK-MDR1, Papp AP→BL (level), AP side to BL side): ~1 ×10⁻⁶ cm/s; Intracellular Accumulation ([6]; AP→BL): 0.36 ± 0.05% |
| CC[C@H]1CN2CC[C@@]3(C(=O)Nc4ccccc43)[C@@H]2C[C@@H]1/C(=C\OC)C(=O)OC [alkaloid 2, isorhynchophylline] | 108.52 ± 1.08 | 100.08 ± 2.26 | 105.21 ± 3.28 | 27.7 ± 0.93 | 17.7 ± 1.2 | 94.3 ± 1.43 | 101 ± 1.89 | 0.37 ± 0.06 | – | – | Papp ([4]; MDCK-MDR1): ~10 ×10⁻⁶ cm/s; Intracellular Accumulation ([6]; AP→BL): 0.24 ± 0.04%; transport mechanism [6]: passive diffusion |
| C=C[C@H]1CN2CC[C@]3(C(=O)Nc4ccccc43)[C@@H]2C[C@@H]1/C(=C\OC)C(=O)OC [alkaloid 3, corynoxeine] | 106.67 ± 5.82 | 102.37 ± 1.65 | 101.52 ± 2.26 | – | – | 96.4 ± 1.17 | 99.6 ± 1.57 | – | 1.21 ± 0.14 | 49.7 ± 4.71 | Papp A→B at 90 min, 40 µM ([1]; dog, MDCK-MDR1): 17.2 ± 2.45 ×10⁻⁶ cm/s; Papp B→A at 90 min, 40 µM ([1]; dog, MDCK-MDR1): 17.5 ± 0.82 ×10⁻⁶ cm/s; efflux ratio at 90 min, 40 µM ([1]; dog, MDCK-MDR1, with verapamil 100 µM, Efflux Ratio (Papp BL→AP/Papp AP→BL), 40 μM alkaloid with 100 μM verapamil, 90 min): < 2; BBB permeability classification [3]: moderate permeability; intracellular accumulation rates [3]: less than 0.4%; Papp A→B ([4]; MDCK-MDR1): ~1 ×10⁻⁶ cm/s; Efflux Ratio (Papp BL→AP/Papp AP→BL) [6]: 40.94; Efflux Ratio (Papp BL→AP/Papp AP→BL) ([6]; listed as corynoxeine (3)): above 2 |
| C=C[C@H]1CN2CC[C@@]3(C(=O)Nc4ccccc43)[C@@H]2C[C@@H]1/C(=C\OC)C(=O)OC [alkaloid 4, isocorynoxeine] | 107.15 ± 5.06 | 102.72 ± 1.97 | 102.02 ± 2.43 | – | – | 93 ± 1.4 | 98.47 ± 0.82 | – | 11.1 ± 1.49 | 20.7 ± 1.03 | intracellular accumulation rates [3]: less than 0.4%; Papp at 90 min, 40 µM ([4]; MDCK-MDR1): ~10 ×10⁻⁶ cm/s; efflux ratio at 90 min, 40 µM ([5]; MDCK-MDR1, Efflux Ratio (Papp BL→AP/Papp AP→BL), 40 μM, 90 min): < 2 |
| CC[C@H]1CN2CCc3c([nH]c4ccccc34)[C@H]2C[C@@H]1/C(=C\OC)C(=O)OC [alkaloid 5, hirsutine] | 106.1 ± 3.57 | 101.9 ± 6.51 | 100.5 ± 4.86 | 14.1 ± 0.73 | 15.1 ± 1.32 | 89.3 ± 6.15 | 104 ± 1.94 | 6.19 ± 0.73 | – | – | Papp ([4]; MDCK-MDR1): ~10 ×10⁻⁶ cm/s; transport mechanism [6]: passive diffusion |
| C=C[C@H]1CN2CCc3c([nH]c4ccccc34)[C@H]2C[C@@H]1/C(=C\OC)C(=O)OC [alkaloid 6, hirsuteine] | 106.89 ± 3.01 | 103.80 ± 5.92 | 102.23 ± 4.19 | – | – | 88.9 ± 5.99 | 104 ± 1.17 | – | 14.9 ± 1.83 | 11.3 ± 1.8 | Papp at 90 min, 40 µM ([4]; MDCK-MDR1): ~10 ×10⁻⁶ cm/s |
| Cn1c(=O)c2c(ncn2C)n(C)c1=O [caffeine, reference compound] | – | – | – | – | – | – | – | – | – | – | Papp at 90 min ([5]; MDCK-MDR1): 30 ×10⁻⁶ cm/s |
